From the supplement of paper PMC8837787

System: Saccharomyces cerevisiae ABC16-Green Monster
Assay: growth inhibition at single dose (up to 150 µM), below the 70% cut-off for dose-response; higher = more potent
Settings: 18 h; 30 °C; YPD
How it was run: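 Data are given as percent growth inhibition. Log-phase drug-sensitive S. cerevisiae ABC16-Green Monster cells (OD600 0.1–0.2, 200 µl per well in 96-well plates) were treated in biological duplicates with each library compound at a single 150 µM dose, with untreated cultures alongside, and OD600 was measured at 0 h and after 18 h at 30 °C. Compounds falling below 70% in both replicates were not taken to dose-response.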

Structure (SMILES) | growth inhibition at single dose [%]
CC(C)CN(C(=O)c1ccc(N2CCCC2)c([N+](=O)[O-])c1)c1nc2ccccc2s1 | < 70
CC(C)(C)CC(C)(C)NCC(O)COc1ccc(Cl)cc1Cl (stereo not drawn) | < 70
COc1ccc(S(=O)(=O)NN(C)c2nc(C(F)(F)F)nc3ccccc23)cc1 | < 70
COc1ccc(-c2csc3ncnc(NCC(=O)NC(C)C)c23)cc1 | < 70
CCCN(CCC)CC(O)COc1ccccc1C(=O)Nc1ccccc1 (stereo not drawn) | < 70
Fc1ccc2[nH]c3c(NCCCN4CCOCC4)ncnc3c2c1 | < 70
Cc1cc(C(=O)NCC#Cc2cccc(C(F)(F)F)c2)on1 | < 70
CNc1snc(C)c1C(=O)NCc1ccc(COCC(F)(F)F)cc1 | < 70
CCn1nc(C(=O)NCc2ccc(OC)cc2)c2c1CCN(C(=O)C1Cc3ccccc3O1)C2 (stereo not drawn) | < 70
Cc1ccc(-c2cnn3c(N4CCCC4)cc(C)nc23)cc1 | < 70
O=C(NCCN1CCCC1)c1cc(NCCN2CCOCC2)nc2ccc(Cl)cc12 | < 70
Cc1ccc(NC(=O)c2cc(S(=O)(=O)NC(C)(C)C)ccc2C)nc1 | < 70
COc1ccccc1CNC(=O)c1cc(C2CC2)nc2c1cnn2C(C)C | < 70
CCOc1cccc(C2Nc3ccccc3C(=O)N2C2CC2)c1O (stereo not drawn) | < 70
Cc1ccc2ncnc(NCCc3ccccc3)c2c1 | < 70
CCOC(=O)c1c[nH]c2c(C)cc(Cl)cc2c1=O | < 70
CC(=O)c1c(C)[nH]c(C(=O)Nc2nc3ccccc3[nH]2)c1C | < 70
COc1ccc(CCN2CCC(CN(C)Cc3cnn(-c4ccccc4)c3)CC2)cc1 | < 70
Cc1ccc(/C=C2\CCc3c2nc2ccccc2c3C(=O)OCC#N)cc1 | < 70
CC(C)(C)c1ccc(C(=O)Nc2nc3ccccc3s2)cc1 | < 70
O=C(NCc1ccc(N2CCCC2=O)cc1)c1cccnc1OCC(F)(F)F | < 70

Structure (SMILES) | growth inhibition at single dose [%]
COc1cc(C2=NCCN2)cc2cc(-c3ccc(C4=NCCN4)cc3)oc12 | < 70
COc1ccccc1N1CCN(c2nc(=O)c3c([nH]2)CCC3)CC1 | < 70
Nc1ncnc2[nH]nc(Cc3cccc4ccccc34)c12 | < 70
CNc1snc(C)c1C(=O)OCc1cc(C(=O)OC)c(C)o1 | < 70
COc1ccc(N(CCc2cccc(C)n2)C(=O)C2CCCCC2)cc1 | < 70
CC(C)c1nc(N2CCN(CC(=O)N3CCCC3)CC2)c(C#N)c2c1CCC2 | < 70
COc1cccc(NC(=O)[C@H](C(C)C)n2c(=O)[nH]c3ccccc3c2=O)c1 | < 70
COc1ccc(-c2nc(NC(=O)CS(=O)(=O)c3ccc(F)cc3)sc2C)cc1 | < 70
Nc1nc(Nc2cccc(F)c2)nc2ccccc12 | < 70
c1ccc2cc3c(Nc4ccc(N5CCOCC5)cc4)ccnc3cc2c1 | < 70
CCOc1ccc(C=Cc2nc(=O)c3ccccc3o2)cc1 | < 70
Cc1cc(NC(=O)c2cccc(C(F)(F)F)c2)n(-c2nc(-c3ccc4c(c3)OCO4)cs2)n1 | < 70
O=C1C2=C(Nc3ccccc3SC2c2ccccc2)c2ccccc21 (stereo not drawn) | < 70
COc1cc(Br)cc2cc(C(=O)Nc3cccc(C(F)(F)F)c3)c(=O)oc12 | < 70
Cc1cc(C(=O)COC(=O)c2ccccc2O)c(C)n1CC1CCCO1 (stereo not drawn) | < 70
CC(=O)N1CCc2cc3nc(C)cc(C)c3cc21 | < 70
CN(C)c1ccc(N=Cc2ccc(N3CCOCC3)cc2)cc1 | < 70
CCOC(=O)c1sc2ncn(-n3c(C)ccc3C)c(=O)c2c1C | < 70
O=C(CSc1nccn2nc(-c3ccccc3)cc12)Nc1cc(C(F)(F)F)ccc1Cl | < 70
COc1ccc(C)cc1N1CC(C(=O)Nc2nc3ccccc3[nH]2)CC1=O (stereo not drawn) | < 70
CC(C)C(NC(=O)Cc1cccc2ccccc12)C(=O)Nc1cccc(C#N)c1 (stereo not drawn) | < 70

Structure (SMILES) | growth inhibition at single dose [%]
O=C(CSc1nnc(/C=C/c2ccc(F)cc2)[nH]1)N(c1ccccc1)C1CCCCC1 | < 70
CCOC(=O)CSCc1noc(COc2ccc(Cl)cc2Cl)n1 | < 70
CCCn1c(=O)n(CC(=O)Nc2ccc(C)c(C)c2)c(=O)c2c1nc(C(F)(F)F)n2CCOC | < 70
CCOc1cc(Cl)c(C(C)NC(=O)c2cccc(OC)c2)cc1OCC (stereo not drawn) | < 70
Cc1ccccc1OCCSc1nc2ccc(NC(=O)c3cccs3)cc2s1 | < 70
Cc1cc(OCC(=O)Nc2ccc(C(C)C)cc2)n(C)c(=O)c1C#N | < 70
CC(=O)c1c(C)[nH]c(C(=O)Nc2ccc(Oc3ccccc3Cl)cc2)c1C | < 70
Cc1cc(=O)n2nc(CSc3nc4ccc(Cl)cc4c(=O)n3CC(C)C)sc2n1 | < 70
Nc1nccc2ccc(-c3ccc4nccn4c3)cc12 | < 70
CC(=O)c1c[nH]c(C(=O)OCC(=O)NCCc2ccc(C(C)C)cc2)c1 | < 70
Cc1cnc(NC(=O)c2ccc(N(C)C3CCCCC3)cc2)s1 | < 70
O=C(Nc1ccc(N2CCCCCC2)cc1)c1ccc[nH]1 | < 70
CN1CCN(c2ccc(Nc3c4ccccc4nc4ccccc34)cc2)CC1 | < 70
Cc1nc(-c2cccc(NCc3ccccc3)c2)[nH]c1C | < 70
CC1(C)Cc2c(c(N3CCOCC3)nc3snc(Br)c23)CO1 | < 70
CCCn1c(=N)c(C(=O)NC2CCCCC2)cc2c(=O)n3cccc(C)c3nc21 | < 70
O=C(Nc1cc(S(=O)(=O)N2CCCC2)ccc1O)c1sccc1-n1cccc1 | < 70
CCc1ccc(Nc2cc(C)nc3nc(C)nn23)cc1 | < 70
C/N=c1\scc(-c2ccc(OC(F)F)cc2)n1/N=C/c1cccs1 | < 70
CC1c2cccc(O)c2C(O)=C2C(=O)C3(O)C(O)=C(C(N)=O)C(=O)C(N(C)C)C3C(O)C21 (stereo not drawn) [Doxycycline] | < 70
Cn1ccnc1SCC(=O)Nc1ccc(C(=O)Nc2ncccc2O)cc1 | < 70

Structure (SMILES) | growth inhibition at single dose [%]
O=C(NC(=O)c1csnn1)Nc1cc(C(F)(F)F)cc(C(F)(F)F)c1 | < 70
O=C1O[C@@H](COc2ccon2)CN1c1cc(F)c(C2=CCN(Cc3ccccc3)CC2)c(F)c1 | < 70
Cc1cc(C(=O)Nc2nc3ccccc3s2)c(C)n1C(C)C | < 70
CCCCC(O)(c1ccc(Cl)cc1)C(CN1CCOCC1)c1ccc(Cl)cc1 (stereo not drawn) | < 70
CCCCn1c(N)c(N(C)CC(=O)Nc2scc(-c3ccccc3)c2C(=O)OCC)c(=O)[nH]c1=O | < 70
COc1ccc(NC(=O)c2ccoc2)cc1S(=O)(=O)Nc1ccc(Br)cc1 | < 70
CNc1snc(C)c1C(=O)Nc1ccc(OC)c(Cc2ccccc2)c1 | < 70
CCS(=O)(=O)c1ncc(Cl)c(C(=O)Nc2ccccc2C(F)(F)F)n1 | < 70
CNC(=O)C1Cc2c([nH]c3cc(Cl)ccc23)C2(CCN(CCc3ccccc3)CC2)N1 (stereo not drawn) | < 70
Cc1ccn2cc(C(=O)Nc3nnc(CC(C)C)s3)nc2c1 | < 70
CCCCNCC(O)(c1ccc(Cl)cc1)c1ccc(Cl)cc1 | < 70
CC(C)(C)n1nc(-c2ccccc2)c2c(N)ncnc21 | < 70
CCOc1ccc(-c2nc(C(=O)Nc3ncccc3O)cs2)cc1 | < 70
O=C(NC1CCN(Cc2ccccc2)CC1)c1cc(C(=O)NC2CCN(Cc3ccccc3)CC2)cc(C(=O)NC2CCN(Cc3ccccc3)CC2)c1 | < 70
CCOc1ccc(-c2nc(NC(=O)c3cccc(S(C)(=O)=O)c3)sc2C)cc1 | < 70
COc1cc(-c2nc(-c3ccc(Sc4ccccc4)cc3)c(-c3ccccc3)[nH]2)cc(OC)c1O | < 70
CCCCOc1ccc(C(=O)Nc2cc(C)on2)cc1 | < 70
Cc1cnc(CCNC(=O)c2cc(-c3ccc(Cl)cc3)cs2)[nH]1 | < 70
O=C(CSc1nnc(C2CC2)o1)NCCC1=CCCCC1 | < 70
COc1ccc2nccc(NC(=O)C3CCN(CCc4ccc(Cl)cc4)CC3)c2n1 | < 70
